Results as given in patent publication US10414778B2, “Methods for treatment of resistant cancer” (New Mexico Tech University Research Park Corporation, priority 2016, dated 2019).
Read-outs that look alike come from different tables or passages of the source.

How the values were obtained:
[1] = tested on: U373 glioblastoma cells; experiment: MTT growth inhibition, U373 glioma; assay type: cell-based, human; conditions: Homo sapiens, U373 MG
Experimental: (§1) Human cancer cell lines were obtained from the American Type Culture Collection (ATCC, Manassas, Va., USA), the European Collection of Cell Culture (ECACC, Salisbury, UK), and the Deutsche Sammlung von Mikroorganismen und Zellkulturen (DSMZ, Braunschweig, Germany). Human cervical adenocarcinoma HeLa cells were cultured in DMEM supplemented with 10% fetal bovine serum (FBS). Human mammary carcinoma MCF-7 cells were cultured in RPMI supplemented with 10% FBS. The U87 cells (ATCC HTB-14) were cultured in DMEM culture medium, while the A549 cells (DSMZ ACC107) were cultured in RPMI culture medium supplemented with 10% heat-inactivated FBS. The GBM Hs683 (ATCC HTB-138) and the T98G (ATCC CRL-1690) cell lines were cultivated in DMEM supplemented with 10% FBS. The GBM U251 cells (ECACC code 09063001) were cultured in 10% MEM. The human uterine sarcoma MES-SA and MES-SA/Dx5 cells were cultured in RPMI-1640 medium supplemented with 10% FBS with MES SA/Dx5 maintained in the presence of 500 nM Doxorubicin (Sigma™). The U373 glioblastoma cells (ECACC 08061901) were cultured in RPMI culture medium supplemented with 10% heat-inactivated FBS.
(§2) All compounds were dissolved in DMSO at a concentration of either 100 mM or 50 mM prior to cell treatment. The cells were trypsinized and seeded at various cell concentrations depending on the cell type. The cells were grown for 24 h to 72 h, treated with compounds at concentrations ranging from 0.001 to 100 μM, and incubated for 48, 72, or 96 h in 100 or 200 μL media depending on the cell line used. Cells treated with 0.1% DMSO were used as a negative control, and cells treated with 1 μM phenyl arsine oxide (PAO) were used as a positive control.
(§3) Compound 4l was evaluated for in vitro growth inhibition against a panel of cancer cell lines, including U373, U251, U87, T98G, human GBM, and A549 NSCLC. […] Compound 4l was also evaluated for in vitro growth inhibition against the apoptosis-sensitive tumor model Hs683 anaplastic oligodendroglioma as a reference.
(§4) Due to their high potencies, compounds 5l and 5g were used to determine the effects of the compounds on drug-resistant tumor cells. Drug-resistant cell lines (i.e., glioma: Hs683, U373, U251, U87, T98G; lung cancer: A549, H2073; uterine carcinoma: MES-SA/Dx5) were complemented with drug-sensitive cell lines, H1993 lung cancer and MES-SA uterine cancer, which were used as controls. Bulbispermine and paclitaxel were also used as controls. The GI50 values were calculated after 48-96 hours of treatment with the indicated compounds in replicate using the MTT growth assay.

[2] = tested on: U251 cells; experiment: MTT growth inhibition, U251 glioma; assay type: cell-based, human; conditions: Homo sapiens
Experimental: as §1, §2, §3, §4

[3] = tested on: U87 cells; experiment: MTT growth inhibition, U87 glioma; assay type: cell-based, human; conditions: Homo sapiens, U-87 MG
Experimental: as §1, §2, §3, §4

[4] = tested on: H1993 cells; experiment: MTT growth inhibition, H1993 NSCLC; assay type: cell-based; conditions: Homo sapiens
Experimental: as §2
(§5) Drug-resistant cell lines (i.e., glioma: Hs683, U373, U251, U87, T98G; lung cancer: A549, H2073; uterine carcinoma: MES-SA/Dx5) were complemented with drug-sensitive cell lines, H1993 lung cancer and MES-SA uterine cancer, which were used as controls. […] The GI50 values were calculated after 48-96 hours of treatment with the indicated compounds in replicate using the MTT growth assay.

[5] = tested on: H2073 cells; experiment: MTT growth inhibition, H2073 drug-resistant NSCLC; assay type: cell-based, human; conditions: for decrease in potency toward H2073 cells relative to H1993 cells: H2073 versus H1993; for GI50: Homo sapiens, NCI-H2073, MTT
Experimental: NSCLC cell lines H1993 and H2073 were obtained from the Hamon Center for Therapeutic Oncology Research at UT Southwestern Medical Center and cultured in RPMI-1640 medium (Mediatech, VA, USA) supplemented with 5% heat-inactivated FBS (Mediatech™), 100 units/mL penicillin and 0.1 mg/mL streptomycin (Sigma™). All cell lines were cultured in T25 flasks, maintained, and grown at 37° C., 95% humidity, 5% CO2.
as §2
Spirodienone 4l was evaluated against patient-derived NSCLC cell line H1993 and its drug-resistant variant, H2073. The patient-derived NSCLC cell line […] was obtained from a regrown tumor at a primary site after a patient relapsed several months later.
as §4
Compound 5l was further tested to determine the effect of compounds of the invention on drug-resistant tumor cells. A patient-derived non-small cell lung cancer (NSCLC) line, H1993, and the drug-resistant variant of H1993, H2073, were used for testing. The H1993 cell line was obtained from a lymph node metastasis isolated from the patient prior to chemotherapy. The H2073 cell line was derived from a regrown tumor at the primary site after the patient had relapsed several months after administration of the chemotherapy regimen.

[6] = tested on: MES-SA cells; experiment: MTT growth inhibition, MES-SA uterine sarcoma; assay type: cell-based; conditions: Homo sapiens, MES-SA, MTT
Experimental: as §1
as §2, with “control. […]” for “control.”
as §5

[7] = tested on: Hs683 cells; experiment: MTT growth inhibition, Hs683 glioma; assay type: cell-based, human; conditions: Homo sapiens
Experimental: as §1, §2, §3, §4

[8] = tested on: HeLa cells; experiment: MTT in vitro growth inhibition assay, HeLa; assay type: cell-based, human; conditions: Homo sapiens, HeLa, two independent experiments
Experimental: as §1
Spirodienones 4a-m were subjected to in vitro growth inhibition 3-(4,5-dimethylthiazol-2-yl)-2,5-diphenyltetrazolium bromide (MTT) assays against two cell lines, human HeLa cervical and MCF-7 breast adenocarcinomas.
as §2
To determine the activities of the compounds of the invention toward cancer cells, cell lines treated with different compounds were subjected to an in vitro MTT growth assay using human cervical cancer (HeLa) and human adenocarcinoma (MCF-7) cell lines. The MTT growth assay is a colorimetric assay that measures the metabolic activity of cells via reduction of 3-(4,5-dimethylthiazol-2-yl)-2,5-diphenyltetrazolium bromide (MTT). The reduction of MTT occurs in metabolically-active cells and is characterized by a purple color, which can be quantified via spectrophotometry. A higher absorbance reading indicates a metabolically-active cell, while a low absorbance reading indicates low metabolic activity due to, for example, inhibition of cellular proliferation or cell death.
The values in TABLE 4 are the mean and standard deviation calculated from two independent experiments, which were performed in 4 replicates.

| GI50 ([1]; Table 5, 48-96 hours of treatment, read-out: GI50, Glioma U373) [µM] | GI50 ([2]; U-251, Table 5, 48-96 hours of treatment, read-out: GI50, Glioma U251) [µM] | GI50 ([3]; Table 5, 48-96 hours of treatment, read-out: GI50, Glioma U87) [µM] | GI50 ([4]; NCI-H1993, Table 5, 48-96 hours of treatment, read-out: GI50, Lung Cancer H1993) [µM] | GI50 ([5]; Table 5, 48-96 hours of treatment, read-out: GI50, Lung Cancer H2073) [µM] | GI50 ([6]; Table 5, 48-96 hours of treatment, read-out: GI50, Sarcoma MES-SA) [µM] | GI50 ([7]; Hs 683, Table 5, 48-96 hours of treatment, read-out: GI50, Glioma Hs683) [µM] | GI50 ([8]; Table 4, 48-hour treatment, mean and standard deviation, read-out: HeLa Cell Viability GI50) [µM] | GI50 ([1]; Table 3, 48-96 h treatment, read-out: GI50 in vitro values, glioma U373) [µM] | GI50 ([2]; U-251, Table 3, 48-96 h treatment, read-out: GI50 in vitro values, glioma U251) [µM] | GI50 ([3]; Table 3, 48-96 h treatment, read-out: GI50 in vitro values, glioma U87) [µM] | GI50 ([4]; NCI-H1993, Table 3, 48-96 h treatment, read-out: GI50 in vitro values, lung cancer H1993) [µM] | GI50 ([5]; Table 3, 48-96 h treatment, read-out: GI50 in vitro values, lung cancer H2073) [µM] | GI50 ([6]; Table 3, 48-96 h treatment, read-out: GI50 in vitro values, uterine sarcoma MES-SA) [µM] | GI50 ([7]; Hs 683, Table 3, 48-96 h treatment, read-out: GI50 in vitro values, glioma Hs683) [µM] | GI50 ([8]; 48 h treatment, ± SD, read-out: cell viability GI50, HeLa) [µM] | SMILES | decrease in potency toward H2073 cells relative to H1993 cells [5] |
| --- | --- | --- | --- | --- | --- | --- | --- | --- | --- | --- | --- | --- | --- | --- | --- | --- | --- |
| 7 | 5 | 5 | 3 | 11 | 2 | 6 | 6.2 ± 1.13 | – | – | – | – | – | – | – | – | O=C1C=C[C@]23CC[N@](Cc4c2sc2ccccc42)[C@H]3C1 [Compound 5l] | less drastic |
| – | – | – | – | – | – | – | – | 7 | 4 | 6 | 12 | 50 | 5 | 5 | 10 | O=C1C=CC2(C=C1)CCN(C(=O)C(F)(F)F)Cc1c2sc2ccccc12 [Compound 4l] | significantly less pronounced than that observed with paclitaxel |
